# Positions of bridges follow the written chain, without caps; N, C: chain ends. Residues, ends and D or L forms follow the SMILES beside them.
# Columns and labels:
# Format in all cases: biochemical
# HTRA1^FL = target: T1, HTRA1^FL (Homo sapiens, UniProt Q92743); assay: HTRA1^FL enzyme inhibition assay with synthetic substrate H2-OPT
# T1 construct: Human full-length HTRA1 (HTRA1^FL, Q23-P480); made in house; host or cells: Trichoplusia ni cells
# Procedure: (§1) Assays with the fluorescence-quenched synthetic substrate Mca-IRRVSYSFK(Dnp)K (H2-OPT)[38],[60] were carried out essentially as described. CKP stock solutions in DMSO were diluted in TNC buffer (dilution series for IC50 determinations, or final concentration of 2 µM for selectivity assay or as indicated for HTRA1/4 mutants) and incubated with enzymes in 96-well black optical bottom plates for 60 min at 37 °C. For selectivity experiments we used the 7mer-ABP as inhibitor, which was incubated with the proteases for 15 min at 37 °C. A 10 mM stock solution of H2-OPT in DMSO was diluted with water, prewarmed at 37 °C and then added to the CKP-enzyme mixtures. The final concentrations in the reaction mixtures were: 1 nM HTRA1^FL, 3 nM HTRA1^PD/PDZ, 1 nM HTRA1^PD, 1 nM HTRA2^PD/PDZ, 3 nM HTRA3^FL, 60 nM HTRA3^PD/PDZ, 6 nM HTRA4^FL, 1 µM HTRA4^PD/PDZ, 1 nM mouse HTRA1^PD, 25 nM HTRA1^PD-A202Y, 1 µM HTRA4^PD/PDZ-Y200A, 0.5 mM 7mer-ABP, 5 µM H2-OPT, and 0.25% DMSO. The kinetics of substrate cleavage was measured at 37 °C on a SpectraMax M5 microplate reader with excitation of 328 nm and emission of 393 nm. The determined initial rates of cleavage were expressed as percent of control (DMSO control) after subtracting the baseline rates (without enzyme). IC50 values were determined by Sigmoidal 4PL modeling of multiple data points from serial dilutions of CKPs using Prism 9 software (GraphPad). For selectivity assays with HTRA1-4^PD/PDZ constructs, the specific activities of the enzymes and enzyme:CKP inhibitor ratios were as follows: HTRA1^PD/PDZ, 12560 mRFU/min/nM – 1:667; HTRA2^PD/PDZ, 32300 mRFU/min/nM – 1:2000; HTRA3^PD/PDZ, 962 mRFU/min/nM – 1:33; HTRA4^PD/PDZ, 18 mRFU/min/nM – 1:2.
# HTRA1^PD/PDZ = target: T2, HTRA1^PD/PDZ (Homo sapiens, UniProt Q92743); assay: H2-OPT selectivity assay, HTRA1^PD/PDZ; details: 3 nM HTRA1^PD/PDZ, 2 µM CKP (0.5 mM 7mer-ABP), 5 µM H2-OPT
# T2 construct: made in house; host or cells: E. coli
# Procedure: as §1, with “For selectivity assays with HTRA1-4^PD/PDZ constructs, the specific activities of the enzymes and enzyme:CKP inhibitor ratios were as follows: HTRA1^PD/PDZ, 12560 mRFU/min/nM – 1:667; HTRA2^PD/PDZ, 32300 mRFU/min/nM – 1:2000; HTRA3^PD/PDZ, 962 mRFU/min/nM – 1:33; HTRA4^PD/PDZ, 18 mRFU/min/nM – 1:2.” left out
# HTRA2^PD/PDZ = target: T3, HTRA2^PD/PDZ (Homo sapiens, UniProt O43464); assay: H2-OPT selectivity assay, HTRA2; details: 1 nM HTRA2^PD/PDZ, 2 µM CKP (0.5 mM 7mer-ABP), 5 µM H2-OPT
# T3 construct: Human HTRA2^PD/PDZ (A134-E458) was from R & D Systems; purchased R & D Systems 1458-HT-100
# T3 sequence (O43464 134-458): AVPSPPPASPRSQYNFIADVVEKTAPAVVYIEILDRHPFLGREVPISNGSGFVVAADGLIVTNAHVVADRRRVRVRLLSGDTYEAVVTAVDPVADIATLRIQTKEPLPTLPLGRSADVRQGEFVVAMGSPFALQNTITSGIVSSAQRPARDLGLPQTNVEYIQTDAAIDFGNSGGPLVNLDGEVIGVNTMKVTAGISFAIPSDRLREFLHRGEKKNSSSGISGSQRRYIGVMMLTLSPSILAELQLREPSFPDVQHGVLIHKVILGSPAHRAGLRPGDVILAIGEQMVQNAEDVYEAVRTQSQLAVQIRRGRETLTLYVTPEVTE
# Procedure: as §1, with “For selectivity assays with HTRA1-4^PD/PDZ constructs, the specific activities of the enzymes and enzyme:CKP inhibitor ratios were as follows: HTRA1^PD/PDZ, 12560 mRFU/min/nM – 1:667; HTRA2^PD/PDZ, 32300 mRFU/min/nM – 1:2000; HTRA3^PD/PDZ, 962 mRFU/min/nM – 1:33; HTRA4^PD/PDZ, 18 mRFU/min/nM – 1:2.” left out
# HTRA4^PD/PDZ, HTRA4^FL [1] = target: T4, HTRA4^PD/PDZ, HTRA4^FL (Homo sapiens, UniProt P83105); assay: Fluorescence-quenched casein-BODIPY assay, HTRA4; details: 30 nM HTRA4^FL, 2 µM CKP (0.5 mM 7mer-ABP)
# T4 construct: purchased Abcam (FL form); the PD/PDZ form was made in house in E. coli ab134444
# T4 sequence (P83105 32-476): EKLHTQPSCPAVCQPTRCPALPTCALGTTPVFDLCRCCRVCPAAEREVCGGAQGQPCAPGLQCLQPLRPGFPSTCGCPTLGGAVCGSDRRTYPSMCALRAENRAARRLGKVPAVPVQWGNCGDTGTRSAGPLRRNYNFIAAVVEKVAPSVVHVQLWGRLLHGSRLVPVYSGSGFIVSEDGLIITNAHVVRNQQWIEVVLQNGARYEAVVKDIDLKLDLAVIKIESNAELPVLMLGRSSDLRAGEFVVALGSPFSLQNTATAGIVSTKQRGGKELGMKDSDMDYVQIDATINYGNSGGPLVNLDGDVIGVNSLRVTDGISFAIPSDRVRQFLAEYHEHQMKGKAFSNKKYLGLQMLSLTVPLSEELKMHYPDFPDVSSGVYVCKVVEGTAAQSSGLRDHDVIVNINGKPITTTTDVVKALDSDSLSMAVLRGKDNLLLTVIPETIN
# Procedure: (§2) The fluorescence-quenched casein-BODIPY® assay (EnzCheck®, Thermo Fisher Scientific) was carried out in TNC buffer (50 mM Tris pH 8.0, 200 mM NaCl, 0.25% CHAPS) at 37 °C in 96-well black optical bottom plates (Nalge Nunc Int., Rochester, NY). Enzymes were incubated with CKPs or DMSO control for 15 min prior to addition of casein substrate. The reactant concentrations were: 30 nM HTRA1^FL, 30 nM HTRA1^PD/PDZ, 30 nM HTRA1^PD, 30 nM HTRA2^PD/PDZ, 30 nM HTRA3^FL, 100 nM HTRA3^PD/PDZ, 30 nM HTRA4^FL, 300 nM HTRA4^PD/PDZ, 2 µM CKP, 5 µg/ml casein substrate and 0.25% DMSO. For selectivity assays, 0.5 mM 7mer-ABP was used as positive control. The kinetics of substrate cleavage were measured at 37 °C on a SpectraMax M5 microplate reader (Molecular Devices) with excitation of 485 nm and emission of 530 nm for 30 min (HTRA1 and HTRA2) or 5 h (HTRA3 and HTRA4). The determined initial rates of cleavage were expressed as percent of control (DMSO control) after subtracting the baseline rates (without enzyme).
# HTRA4^PD/PDZ, HTRA4^FL [2] = target: T5, HTRA4^PD/PDZ, HTRA4^FL (Homo sapiens, UniProt P83105); assay: Fluorescence-quenched casein-BODIPY assay, HTRA4; details: 300 nM HTRA4^PD/PDZ, 2 µM CKP (0.5 mM 7mer-ABP)
# T5 construct: purchased Abcam (FL form); the PD/PDZ form was made in house in E. coli ab134444
# T5 sequence (P83105 153-476): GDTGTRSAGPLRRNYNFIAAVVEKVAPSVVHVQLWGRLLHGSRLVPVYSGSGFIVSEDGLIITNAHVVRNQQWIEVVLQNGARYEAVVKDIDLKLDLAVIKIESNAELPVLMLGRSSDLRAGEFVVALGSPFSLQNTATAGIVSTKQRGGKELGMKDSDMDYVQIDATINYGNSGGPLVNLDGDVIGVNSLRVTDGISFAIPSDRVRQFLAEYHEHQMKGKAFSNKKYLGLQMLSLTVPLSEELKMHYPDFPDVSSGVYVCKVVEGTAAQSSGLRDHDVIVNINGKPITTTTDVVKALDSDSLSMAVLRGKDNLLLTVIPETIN
# Procedure: as §2
# T1 sequence (Q92743 23-480): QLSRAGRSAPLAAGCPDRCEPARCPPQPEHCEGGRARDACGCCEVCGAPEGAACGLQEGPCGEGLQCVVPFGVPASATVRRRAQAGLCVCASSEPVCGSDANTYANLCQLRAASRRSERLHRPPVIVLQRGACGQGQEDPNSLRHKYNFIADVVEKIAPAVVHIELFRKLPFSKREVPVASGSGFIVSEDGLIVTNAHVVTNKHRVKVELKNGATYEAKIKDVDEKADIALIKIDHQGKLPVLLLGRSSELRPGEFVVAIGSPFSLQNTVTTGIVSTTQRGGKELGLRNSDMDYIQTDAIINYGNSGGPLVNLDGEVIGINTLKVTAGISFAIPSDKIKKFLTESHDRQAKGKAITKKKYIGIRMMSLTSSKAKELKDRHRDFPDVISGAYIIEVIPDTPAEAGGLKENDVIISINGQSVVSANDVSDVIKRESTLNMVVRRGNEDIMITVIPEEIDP
# T2 sequence (Q92743 161-480): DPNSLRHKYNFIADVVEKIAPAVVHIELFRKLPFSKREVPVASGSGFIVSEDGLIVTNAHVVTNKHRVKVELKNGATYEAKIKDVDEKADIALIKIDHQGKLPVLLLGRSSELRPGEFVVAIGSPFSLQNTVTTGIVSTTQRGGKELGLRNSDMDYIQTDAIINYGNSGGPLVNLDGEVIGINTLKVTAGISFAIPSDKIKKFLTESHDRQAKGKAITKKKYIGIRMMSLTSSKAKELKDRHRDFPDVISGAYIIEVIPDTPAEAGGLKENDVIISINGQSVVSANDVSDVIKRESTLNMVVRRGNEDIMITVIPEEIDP
Compound,IC50 (HTRA1^FL) [nM],"Inhibition of HTRA1^PD/PDZ, H2-OPT (% of control) (HTRA1^PD/PDZ)","Inhibition of HTRA2^PD/PDZ, H2-OPT (% of control) (HTRA2^PD/PDZ)","Inhibition of HTRA4^FL, casein-BODIPY cleavage (% of control) (HTRA4^PD/PDZ, HTRA4^FL [1])","Inhibition of HTRA4^PD/PDZ, casein-BODIPY cleavage (% of control) (HTRA4^PD/PDZ, HTRA4^FL [2])","Inhibition of HTRA1^FL at single concentration, H2-OPT (% of control) (HTRA1^FL; 1 nM HTRA1^FL, 2 µM CKP (0.5 mM 7mer-ABP))"
"CC[C@H](C)[C@H](NC(=O)[C@@H]1CCCN1C(=O)[C@H](CC(=O)O)NC(=O)[C@H](C)NC(=O)[C@@H](N)Cc1c[nH]cn1)C(=O)N[C@H]1CSSC[C@@H]2NC(=O)[C@H](Cc3ccccc3)NC(=O)[C@H](Cc3c[nH]c4ccccc34)NC(=O)[C@H](C)NC(=O)CNC(=O)[C@H](CO)NC(=O)[C@@H]3CSSC[C@@H](C(=O)NCC(=O)N4CCC[C@H]4C(=O)N[C@@H](Cc4ccc(O)cc4)C(=O)N[C@H](C(=O)NCC(N)=O)C(C)C)NC(=O)[C@H](CO)NC(=O)[C@H](Cc4c[nH]c5ccccc45)NC(=O)[C@H]([C@@H](C)O)NC(=O)[C@H](C)NC(=O)[C@H](Cc4ccc(O)cc4)NC(=O)[C@H](Cc4ccc(O)cc4)NC(=O)[C@H](CSSC[C@H](NC(=O)[C@@H]4CCCN4C(=O)[C@H](CCCCN)NC(=O)[C@H](CC(N)=O)NC1=O)C(=O)N[C@@H](CCCCN)C(=O)N[C@@H]([C@@H](C)O)C(=O)N[C@@H](Cc1c[nH]cn1)C(=O)N[C@@H](CC(=O)O)C(=O)N[C@@H](CC(=O)O)C(=O)N3)NC(=O)[C@H](C)NC(=O)[C@H](CCC(N)=O)NC2=O [3B3] (H-HADPICNKPCKTHDDCSGAWFCQACYYATWSCGPYVG-NH2; disulfide 6-22, 10-25, 16-32)",53,,,,,
DPMFKLV-phosphonate [7mer-ABP],,significantly inhibited,significantly inhibited,significantly inhibited,significantly inhibited,significantly inhibited

# From publication PMC11111691, “Cystine-knot peptide inhibitors of HTRA1 bind to a cryptic pocket within the active site region” (Nature Communications, 2024)
